{"source": "patent US9918983B2", "about": "“Suicidal LSD1 inhibitors targeting SOX2-expressing cancer cells” (THE BOARD OF REGENTS OF THE NEVADA SYSTEM OF HIGHER …, priority 2013, dated 2018)", "key": {"LSD1-protein A complex": {"target": "T1, LSD1-protein A complex (Mus musculus, UniProt Q6ZQ88)", "T1 construct": "recombinant and endogenous LSD1 complexes isolated from F9 cells; endogenous in cells; host or cells: F9 mouse teratocarcinoma cells, anti-LSD1 immunoprecipitate on protein A-Sepharose", "experiment": "In vitro demethylation assay, immunoaffinity-purified LSD1-protein A complex from F9 cells", "format": "biochemical", "conditions": "dimethylated H3K4 peptide; 50 μM CBB1007 or 2 μM MS-275", "from_the_text": "The immunocomplexes were captured by protein A-Sepharose. Isolated LSD1-protein A or HDAC1-protein A complexes were verified by Western blotting with LSD1 and HDAC1 antibodies."}, "[1]": {"target": "T2, LSD1-CoREST-HDAC1 complex (Homo sapiens, UniProt O60341+Q13547)", "T2 construct": "Human LSD1 and HDAC1 full-length cDNAs were obtained from Open Biosystems; GST (N, cleaved yes); made in house; host or cells: Escherichia coli BL21", "experiment": "Reconstituted LSD1-CoREST-HDAC1 complex on oligonucleosomes", "format": "biochemical", "conditions": "50 μM CBB1007 or 2 μM MS-275", "method": "For the reconstitution reaction, recombinant GST-CoREST, His-LSD1, and recombinant HDAC1 (rHDAC1) (GST was removed by the use of PreScission protease) (10 μg) were assembled into the LSD1-CoREST-HDAC1 complex and then pulled down by GSTSepharose resins. Protein A-Sepharose was used as a negative-control resin.\nBriefly, cells (1×10^6) were washed twice with ice-cold hypotonic buffer (20 mM potassium-HEPES, pH 7.8, 5 mM potassium acetate, 0.5 mM MgCl2, 0.5 mM DTT), swelled, and disrupted with 25 strokes in a Dounce homogenizer using a tightfitting pestle. Nuclei were pelleted at 4,000 rpm for 5 min and resuspended in buffer A (20 mM HEPES, pH 7.9, 1.5 mM magnesium acetate, 50 mM potassium acetate, 10% glycerol, 0.5 mM DTT, 150 mM NaCl, protease and phosphatase inhibitors). […] The chromatin pellet was resuspended in 0.5 mL buffer B (0.32 M sucrose, 50 mM Tris-HCl, pH 7.5, 4 mM MgCl2, 1 mM CaCl2, 0.1 mM phenylmethylsulfonyl fluoride) and incubated with 30 units of micrococcal nuclease for 10 min at 37° C. The digested samples were centrifuged at 8,000×g for 10 min, and the supernatant, which contained oligonucleosomes, was recovered.\nThe reaction products (demethylated or deacetylated histones) were analyzed by Western blotting."}, "PA-1 cells": {"tested_on": "PA-1 cells", "experiment": "Cell growth/viability (MTT, microscopy)", "format": "cell-based, human", "conditions": "PA-1 cells, 50 μM, 30 hours", "description": "Lung, breast, ovarian, and other carcinoma cells were either obtained from American Type Culture Collection (ATCC) or from the DTP and DCTD Tumor Repository of National Cancer Institute (the NCI-60 cancer cell line panel), operated by Charles River Laboratory, Inc., as listed in Table 1. They were cultured according to instructions and treated with various concentrations of LSD1 inhibitors for 30-36 hours for mRNA analysis by quantitative real time RT-PCR or for 30-48 hours for protein analysis and the cell viability assays using Western blotting or microscopy and MTT assays as described previously (Wang, J., et al. (2011) Cancer Research 71, 7238-7249).\nAlternatively, cell viability assays were conducted as previously described (Wang, J., et al. (2011) Cancer Research 71, 7238-7249). For the MTT assay, cells were seeded onto 96-well culture plates with a density of 2000-5000 cells/well, and incubated with CBB1003 or CBB1007 at various concentrations from 1 to 100 μM for 30-48 hours, depending cell growth rate. Dimethylsulfoxide (DMSO) was used as a solvent control. MTT was added to a final concentration of 0.5 mg/mL and cells were re-incubated for 4 hours. After removing the medium, 200 μL DMSO was added to dissolve formazan, followed by incubation for 10 minutes, and absorbance was measured at 490 nm by a Bio Red microplate reader. All assays were performed in triplicates for each concentration. The cell viability rate was calculated as the relative percentage of MTT absorption as follows: % cell viability=(mean experimental absorbance/mean control absorbance)×100.\nTable 8 below lists activity of CBB3001 (compound 10) in Sox2-negative (ES-2) and Sox2-expressing (PA-1 and T47D) cancer cells determined in a cell-based assay as described herein (see also FIG. 3A-C)."}, "[2]": {"target": "T3, recombinant LSD1 (GST-LSD1) (Homo sapiens, UniProt O60341)", "T3 construct": "Human LSD1 and HDAC1 full-length cDNAs were obtained from Open Biosystems; GST (N, cleaved yes); made in house; host or cells: Escherichia coli BL21", "experiment": "In vitro demethylation assay, recombinant LSD1, H3K4me2 peptide", "format": "biochemical", "conditions": "dimethylated H3K4 peptide; 50 μM CBB1007 or 2 μM MS-275", "source_text": "H3K4me2 and H4K16ac were purchased from AnaSpec and Shanghai Science Peptide Biological Technology Co., Ltd., respectively. Human LSD1 and HDAC1 full-length cDNAs were obtained from Open Biosystems. Human CoREST cDNA was amplified by reverse transcription-PCR (RT-PCR) using mRNA isolated from HeLa cells. These cDNAs were fully sequenced and cloned into the pGEX-KG or pET28a vector and expressed as the glutathione S-transferase (GST)- or His-tagged fusion proteins in the Escherichia coli BL21 strain and affinity purified with glutathione or Ni-Sepharose (GE Healthcare, United Kingdom) resin. […]\nFor a typical deacetylation assay, 1 μg rHDAC1 or 1 μg immunoprecipitated endogenous HDAC1-protein A complexes (from two 10-cm dishes) was incubated with 0.4 μg H4K16ac peptide in the presence or absence of 50 μM CBB1007 or 2 μM MS-275 at 30° C. for 1 h. The percentages of deacetylated products were analyzed by mass spectrometry, and the data were analyzed by GraphPad Prism (version 5) software. The reaction products were analyzed by mass spectrometry to separate the peptide substrate (H4K16ac) and the product (H4K16), as previously described (Wang, J., et al. (2011) Cancer Research 71, 7238-7249). […]"}}, "data": [{"smiles": "COC(=O)c1cc(CN2CCN(C(=N)N)CC2)cc(C(=O)N2CCN(C(=O)c3ccc(C(=N)N)cc3)CC2)c1", "note": "[CBB1007]", "values": [{"measurement": "demethylation activity of immunoaffinity-purified LSD1 (LSD1-protein A)", "setting": "LSD1-protein A complex", "result": "sensitive"}, {"measurement": "HDAC1 deacetylase activity in the reconstituted complex", "setting": "[1]", "result": "partial inhibition of the HDAC1 deacetylase activity"}, {"measurement": "LSD1 demethylase activity in the reconstituted complex", "setting": "[1]", "result": "inhibited the activity of LSD1 demethylase"}, {"measurement": "cell growth", "setting": "PA-1 cells", "result": "sensitive"}, {"measurement": "demethylation activity of GST-LSD1", "setting": "[2]", "result": "sensitive"}]}]}
